Like-named read-outs stand apart in the source and are kept apart here.
Legend:
[1] = test system: HBV mRNA; assay: Inhibition of HBV mRNA expression in liver of 44Bri mice, day 14 (Exp. Ex. 2-4); format: in vivo, HBV transgenic mice C57BL/6J-Tg(Alb1HBV)44Bri/J; details: 1 mg/kg subcutaneous single dose, day 14 after administration
Description: (§1) HBV transgenic mice C57BL/6J-Tg(Alb1HBV)44Bri/J: purchased from Department of Laboratory Animal Science, Peking University Health Science Center. Mice with S/COV >10 were selected before the experiment. Hereinafter, the transgenic mice were sometimes abbreviated as 44Bri model mice;
In this experimental example, the inhibitory efficiency of Conjugate 32 on the expression level of HBV mRNA in HBV-transgenic mice C57BL/6J-Tg (A 1b1HBV) 44Bri/J was investigated.
The HBV transgenic mice C57BL/6J-Tg (Alb1HBV) 44Bri/J used in this experimental example were purchased from the Department of Laboratory Animal Science, Peking University Health Science Center. […]
For each mouse, 1 μg of total RNA was taken, and the extracted total RNA was reverse-transcribed into cDNA using ImProm-II™ reverse transcription kit (Promega Crop.) according to the instructions thereof to obtain a solution containing cDNA, and then the expression level of HBV mRNA in liver tissue was determined by the fluorescent quantitative PCR kit (Beijing Cowin Biosciences Co., Ltd.). In this fluorescent quantitative PCR method, R-actin gene was used as an internal control gene, and HBV and 3-actin were detected by using primers for HBV and β-actin, respectively. […]

[2] = test system: HBV mRNA; assay: Inhibition of HBV mRNA expression in liver of 44Bri mice, day 7 (Exp. Ex. 2-6); format: in vivo, HBV transgenic mice C57BL/6J-Tg(Alb1HBV)44Bri/J; details: 1 mg/kg subcutaneous, day 7 after administration
Description: as §1
In this experimental example, the inhibitory efficiency of different concentrations of Conjugate 32 on the expression level of HBV mRNA in HBV transgenic mice C57BL/6J-Tg (Alb1HBV) 44Bri/J was investigated. […]
The expression level of HBV mRNA in the liver tissue of each mouse was determined by real-time fluorescent quantitative PCR. Specifically, the total RNA extracted from the liver tissue of each mouse was reverse-transcribed into cDNA using ImProm-II™ reverse transcription kit (Promega) according to the instructions thereof, and then the expression level of HBV mRNA in liver tissue was determined by the fluorescent quantitative PCR kit (Beijing Cowin Biosciences Co., Ltd.) and the inhibitory efficiency was calculated. In this fluorescent quantitative PCR method, GAPDH gene was used as an internal control gene, and the HBV and GAPDH were detected by using the primers for HBV and GAPDH, respectively. […]

[3] = test system: HBV DNA; assay: Time course of serum HBV DNA in AAV-HBV low concentration model mice (Exp. Ex. 2-7); format: in vivo; details: 3 mg/kg subcutaneous single dose
Description: (§2) The AAV-HBV low concentration model mice were used.
Normalized expression level of HBV DNA=(HBV DNA content after administration/HBV DNA content before administration)×100%.

[4] = test system: HBV mRNA; assay: Inhibition of HBV mRNA on day 70 (Exp. Ex. 2-7, FIG. 9); format: in vivo, AAV-HBV low concentration model mice; details: 1 mg/kg or 3 mg/kg, day 70 after administration
Method: as §2
In a further experiment, the inhibitory effect on HBV mRNA on day 70 was tested according to the detection method of Example 6 above, and the results are shown in FIG. 9.

[5] = 90% cynomolgus monkey plasma, 37° C., period of up to 72 hours
Method: Therein, 0 hour is the time when 10 μL of the mixed solution was taken immediately after the conjugate solution was mixed well with 90% cynomolgus monkey plasma. After sampling at each time point, each mixed solution was diluted 5-fold with 1×PBS (pH7.4), and 10 μL of each diluted mixed solution was taken for electrophoresis.
20 wt % of non-denatured polyacrylamide gel was prepared. The samples for electrophoresis in each group of the above diluted samples were mixed with 4 μL of loading buffer (20 mM EDTA, 36 wt % glycerol, and 0.06 wt % aqueous solution of bromophenol blue) and loaded into each gel well for electrophoresis under 80 mA constant current for 60 minutes. After electrophoresis, the gel was stained with 1×Sybr Gold dye (Invitrogen, Cat. 11494) for 15 minutes and imaged.

[6] = SD rats, subcutaneous single dose 0.5 mg/kg and 1 mg/kg
Method: In this Experimental Example, the rats in each experimental group (10 rats in each group, half male and half female) were administered with Conjugate 32 by subcutaneous injection respectively at a single dose of 1 mg/kg and 0.5 mg/kg of rat body weight. The plasma drug concentration and liver tissue drug concentration in rats at each time point were then measured.
First, SD rats were randomly divided into groups according to the body weight and gender of the rat using the [sequence] version 7.2.0 data system, and then the conjugates were administered at the designed doses, respectively. All animals were dosed based on body weight and subcutaneously administered at a single doses of 1 and 0.5 mg/kg (provided in the form of 0.1 mg/mL and 0.05 mg/mL in 0.9% aqueous sodium chloride solution, with a volume of 10 mL/kg). The rat's whole blood was collected from the jugular vein before administration and 5 minutes (±30 seconds), 30 minutes (±1 minute), 1 hour (±2 minutes), 2 hours (±2 minutes), 6 hours (±5 minutes), 24 hours (±10 minutes), 48 hours (±20 minutes), 72 hours (±20 minutes), 120 hours (±30 minutes), and 168 hours (±30 minutes) after administration. […]
The concentration of Conjugate 32 in rat plasma and liver tissue was quantitatively determined by HPLC-FLD (High Performance Liquid Fluorescence Chromatography) according to the following steps: […]

[7] = test system: HBsAg; details: M-Tg HBV mice, 3 mg/kg subcutaneous single dose, period of up to 70 days
Method: HBV transgenic mice: named as M-Tg HBV, purchased from the Animal Department of Shanghai Public Health Center. […] Hereinafter, the transgenic mice were sometimes abbreviated as M-Tg model mice;
M-Tg HBV mice (purchased from the Animal Department of Shanghai Public Health Center) were used. […] The AAV virus used is rAAV8-1.3HBV, type D (ayw) virus, purchased from Beijing FivePlus Molecular Medicine Institute Co. Ltd., 1×10^12 viral genome (v.g.)/mL, Lot No. 2016123011. The AAV virus was diluted to 5×10^11 v.g./mL with sterilized PBS prior to the experiment. Each mouse was injected with 200 μL (that is, each mouse was injected with 1×10^11 v.g). […] Each conjugate was administered in the form of 0.2 mg/mL or 0.6 mg/mL (both calculated based on siRNA) in 0.9% aqueous sodium chloride solution, with an administration volume of 5 mL/kg mouse body weight; that is, the administration doses of each conjugate (calculated based on siRNA) were 1 mg/kg and 3 mg/kg. […] The blood was collected from mouse orbital venous plexus before administration and on day 7, 14, 21, 28, 35, 42, 49, 63, and 70 days after administration, and the serum HBsAg level was determined at each time point. […]
The inhibition rate against HBsAg is calculated according to the following equation:
wherein HBsAg content is expressed as the equivalents (UI) of HBsAg per millilitre (mL) of serum.

[8] = test system: HBsAg; details: AAV-HBV low concentration model mice, 3 mg/kg subcutaneous single dose
Method: The AAV-HBV low concentration model mice were used. After the animal models were successfully established, they were randomly divided into groups according to serum HBsAg content (five mice per group). […] The blank group was administered with only 5 mL/kg 1×PBS. Blood was collected from mouse orbital venous plexus before administration and on day 14, 28, 42, 56, 70, 84, 98, 112, 126, 140, 154, 168, 182, and 196 days after administration, and the serum HBsAg level was determined at each time point.
About 100 μL orbital blood was taken each time, and no less than 20 NL serum was collected after centrifugation. The HBsAg content in serum was determined by using HBsAg CLIA kit (Autobio, CL0310) according to the instructions provided by the manufacturer.
Normalized expression level of HBsAg=(HBsAg content after administration/HBsAg content before administration)×100%.

Substance: Conjugate 32: siRNA conjugate, S SEQ ID NO 367, AS SEQ ID NO 368, Table 2A; conjugated via Compound N-62 (sense CCUUGAGGCAUACUUCAAA; antisense UUUGAAGUAUGCCUCAAGGUU; conjugated via Compound N-62, position not given here)
- inhibition rate against HBV mRNA in liver tissue [1]: up to 89.86%
- inhibition rate against HBV mRNA in liver tissue [2]: up to 91.96%
- inhibition rate against HBV DNA in serum [3]: up to 85.7%
- inhibitory effect on HBV mRNA on day 70 [4]: can still inhibit the expression level of HBV mRNA to a certain extent
- stability in cynomolgus monkey plasma in vitro (semiquantitative) [5]: remain undegraded
- concentration in rat plasma over time [6]: rapidly decreased to below detection limit within a few hours
- time for which the concentration in liver tissue maintained a higher and stable level [6]: at least 150 hours
- inhibition rate against serum HBsAg [7]: up to 97.80%
- inhibition rate against serum HBsAg [8]: up to 90.9%
